Measured values published in patent US8471063B2, “Michael systems as transglutaminase inhibitors” (Zedira GmbH, priority 2006, dated 2013).
Where two headings read alike, the source gives them in different places. *1 amine or outer side, *2 acyl side, *3 side chain or, on linkers, in order; H or OH if unused. Where a SMILES comes first, the peptide text is derived from it. [ ]: non-standard residue; d: D form. X3 = O=C([C@H](CC/C=C/[N+](=O)[O-])N[*:1])[*:2]; Phe(2,4-Cl2) = N[C@@H](Cc1ccc(Cl)cc1Cl)C(=O)O; X1 = CN(C)C(=O)/C=C/CC[C@H](N[*:1])C(=O)[*:2]; X4 = O=C([C@@H]1C(O)c2ccccc2CN1[*:1])[*:2]; hCit = NC(=O)NCCCC[C@H](N)C(=O)O; Aib = CC(C)(N)C(=O)O

Tests used:
Type in all cases: biochemical
TG3 = target: T1, TG3 (Homo sapiens, UniProt Q08188); assay: Transglutaminase inhibition, IC50 at TG3
T1 sequence (Q08188 1-693): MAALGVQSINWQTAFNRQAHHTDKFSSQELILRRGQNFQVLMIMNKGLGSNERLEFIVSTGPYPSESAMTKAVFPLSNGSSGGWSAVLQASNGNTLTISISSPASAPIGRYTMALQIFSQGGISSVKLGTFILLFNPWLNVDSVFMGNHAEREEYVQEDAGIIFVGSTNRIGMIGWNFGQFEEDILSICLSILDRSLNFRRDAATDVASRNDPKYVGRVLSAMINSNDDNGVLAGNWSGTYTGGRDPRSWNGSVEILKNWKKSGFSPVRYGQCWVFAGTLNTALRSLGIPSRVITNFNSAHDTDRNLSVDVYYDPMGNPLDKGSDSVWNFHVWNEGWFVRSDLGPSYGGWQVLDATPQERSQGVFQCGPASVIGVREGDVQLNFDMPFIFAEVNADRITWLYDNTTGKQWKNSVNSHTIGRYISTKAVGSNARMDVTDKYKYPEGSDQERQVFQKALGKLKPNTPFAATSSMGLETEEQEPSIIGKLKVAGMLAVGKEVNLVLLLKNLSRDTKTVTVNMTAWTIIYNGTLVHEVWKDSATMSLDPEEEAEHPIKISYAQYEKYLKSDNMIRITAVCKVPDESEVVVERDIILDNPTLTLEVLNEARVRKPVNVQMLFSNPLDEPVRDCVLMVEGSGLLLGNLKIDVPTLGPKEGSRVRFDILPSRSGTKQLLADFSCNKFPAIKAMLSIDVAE

TG6 = target: T2, TG6 (Homo sapiens, UniProt O95932); assay: Transglutaminase inhibition, IC50 at TG6
T2 construct: His6 (N); made in house; host or cells: E. coli BL21 (DE3)
T2 sequence (O95932 1-706): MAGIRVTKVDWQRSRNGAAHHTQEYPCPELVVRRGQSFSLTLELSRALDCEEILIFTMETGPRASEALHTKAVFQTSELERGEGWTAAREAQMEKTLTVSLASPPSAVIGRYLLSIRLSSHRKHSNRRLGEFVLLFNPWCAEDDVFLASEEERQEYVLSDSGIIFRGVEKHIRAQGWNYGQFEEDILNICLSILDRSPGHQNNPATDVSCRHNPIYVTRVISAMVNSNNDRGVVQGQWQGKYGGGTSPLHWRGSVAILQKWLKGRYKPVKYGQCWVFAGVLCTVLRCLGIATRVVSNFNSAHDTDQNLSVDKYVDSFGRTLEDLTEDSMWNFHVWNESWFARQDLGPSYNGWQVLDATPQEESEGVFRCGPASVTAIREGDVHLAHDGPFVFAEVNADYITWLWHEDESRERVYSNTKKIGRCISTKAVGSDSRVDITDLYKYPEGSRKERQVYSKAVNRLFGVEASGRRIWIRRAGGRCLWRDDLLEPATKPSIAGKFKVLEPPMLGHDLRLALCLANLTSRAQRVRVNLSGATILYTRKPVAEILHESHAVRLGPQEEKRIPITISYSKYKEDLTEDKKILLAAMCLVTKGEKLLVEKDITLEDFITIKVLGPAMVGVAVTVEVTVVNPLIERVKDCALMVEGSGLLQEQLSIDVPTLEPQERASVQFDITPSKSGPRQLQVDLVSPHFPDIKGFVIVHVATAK
Method: (§1) The genes encoding for TG6 and TG7 were amplified from TG6-cDNA and TG7-cDNA, respectively, with PCR according to standard procedures (both state-of-the-art according to U.S. Pat. No. 7,052,890). Through the primers used a NdeI restriction site and six histidine codons were inserted at the 5′ end and a BgIII restriction site (TG6) and a HindIII restriction site (TG7) at the 3′ end.
(§2) The Tg6 PCR product was treated with the restriction endonucleases NdeI and BgIII. In the NdeI and BamH I restricted vector pET 3a was inserted. The Tg7 PCR product was treated with the restriction endonucleases NdeI and HindIII. and in the likewise restricted vector pET 28b was inserted.
(§3) The E. coli strain BL21 (DE3) (Novagen, Darmstadt) was transformed with the obtained plasmids. A culture of one strain each was induced with IPTG and harvested. After cell disruption under high pressure homogenisation the disrupts were centrifuged and the supernatants were purified via metal ion affinity chromatography on HiTrap chelating HP columns (GE-Helathcare). The purified proteins TG6 and TG7 were analyzed by SDS-PAGE with Coomassie staining. All procedures used for the production of TG6 and TG7 are well known to the one skilled in the art.

TG7 = target: T3, TG7 (Homo sapiens, UniProt Q96PF1); assay: Transglutaminase inhibition, IC50 at TG7
T3 construct: His6 (N); made in house; host or cells: E. coli BL21 (DE3)
T3 sequence (Q96PF1 1-710): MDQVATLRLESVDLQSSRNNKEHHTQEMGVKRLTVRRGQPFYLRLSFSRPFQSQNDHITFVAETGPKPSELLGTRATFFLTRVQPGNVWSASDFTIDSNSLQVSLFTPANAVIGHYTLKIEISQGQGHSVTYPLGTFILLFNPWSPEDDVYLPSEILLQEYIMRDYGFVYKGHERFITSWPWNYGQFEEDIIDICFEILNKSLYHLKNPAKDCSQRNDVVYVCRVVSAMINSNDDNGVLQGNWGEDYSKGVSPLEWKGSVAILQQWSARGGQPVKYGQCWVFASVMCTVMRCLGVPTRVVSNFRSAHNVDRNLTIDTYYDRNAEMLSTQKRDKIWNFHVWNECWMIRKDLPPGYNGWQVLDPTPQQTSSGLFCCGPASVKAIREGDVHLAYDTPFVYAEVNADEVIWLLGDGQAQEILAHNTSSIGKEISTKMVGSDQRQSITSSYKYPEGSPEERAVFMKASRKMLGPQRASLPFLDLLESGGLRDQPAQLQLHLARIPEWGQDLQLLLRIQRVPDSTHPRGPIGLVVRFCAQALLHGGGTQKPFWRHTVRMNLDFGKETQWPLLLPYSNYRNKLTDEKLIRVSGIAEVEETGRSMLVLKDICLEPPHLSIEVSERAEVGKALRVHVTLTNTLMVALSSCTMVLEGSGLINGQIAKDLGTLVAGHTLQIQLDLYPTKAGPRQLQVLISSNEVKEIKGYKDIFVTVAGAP
Method: as §1, §2, §3

[1] = Table 2, read-out: IC50 value [TG3]
[2] = Table 2, read-out: IC50 value [TG6]
[3] = Table 2, read-out: IC50 value [TG7]

Compound	IC50 (TG3; [1]) [µM]	IC50 (TG6; [2]) [µM]	IC50 (TG7; [3]) [µM]	IC50 (TG3) [µM]	IC50 (TG6) [µM]	IC50 (TG7) [µM]
CC[C@H](C)[C@H](NC(=O)[C@H](CCC(N)=O)NC(=O)[C@H](CC/C=C/C(=O)N(C)C)NC(=O)[C@H](Cc1ccc(Cl)cc1Cl)NC(=O)C(C)(C)NC(C)=O)C(=O)N[C@H](C(=O)O)C(C)C [Compound 3.2.13] (Ac-[Aib][Phe(2,4-Cl2)][X1]QIV-OH)	> 100	4	46			
CC(=O)N[C@@H](CCC(N)=O)C(=O)N[C@@H](CCC(N)=O)C(=O)N[C@@H](CC/C=C/[N+](=O)[O-])C(=O)N[C@H](C(=O)N[C@@H](CCCCNC(N)=O)C(=O)N[C@@H](CCC(N)=O)C(=O)N1Cc2ccccc2C(O)[C@H]1C(N)=O)C(C)C (stereo partly drawn) [Compound 3.2.14] (Ac-QQ[X3]V[hCit]Q[X4]-NH2)	2.3	> 100	> 100			
CC(=O)N[C@@H](CCl)C(=O)N1CSC[C@H]1C(=O)N[C@@H](CC/C=C/C(=O)c1ccc([N+](=O)[O-])cc1)C(=O)N[C@@H](CCC(N)=O)C(=O)N[C@@H](CC1CCCCC1)C(=O)Nc1ccc(C(=O)O)cc1 [Compound 3.2.16]				48	2	3.4
